# Reference: US9375493B2, “Bacterial imaging agents and methods of using same” (VisEn Medical, Inc., priority 2012, dated 2016)
# Experiments:
# [1] = tested on: Staphylococcus epidermidis; assay: In vivo imaging of Staphylococcus epidermidis thigh infection (FMT2500); parameters: species or system SKH1-E female mice; settings: 10^8 CFUs i.m. left thigh; 5 nM agent i.v. about 24 hours after inoculation; imaged one, two and three hours after agent injection; all time points
# Description: SKH1-E female mice, aged 6-8 weeks, were injected intramuscularly with 10^8 CFUs (colony forming units) of Staphylococcus epidermidis in the left thigh. Mice were given intravenous injections of 5 nM of bacterium targeting agent, compound A7, approximately 24 hours after the initial bacterial inoculation.
# Escherichia coli [2] = assay: In vivo imaging of Escherichia coli thigh infection (FMT2500); parameters: species or system SKH1-E female mice; settings: 10^5-10^8 CFUs i.m. left thigh; 5 nM agent i.v. about 24 hours after inoculation; imaged one hour after agent injection
# Description: SKH1-E female mice, aged 6-8 weeks, were injected intramuscularly in the left thigh with different concentrations of Escherichia coli at 10^5-10^8 CFUs. At approximately 24 hours after the initial bacterial inoculation, mice were given intravenous injections of 5 nM of bacterium targeting agent, compound A7.
# Escherichia coli [3] = assay: In vitro binding of bacterium targeting agent to bacteria, flow cytometry; assay type: cell-based; settings: 10 μM final in TES buffer, RT, 1 hour; FIG. 1A/1B
# Description: (§1) Bacteria were grown at 37° C. to an OD600=0.3-0.5 and centrifuged at 3500 rpm for 4 minutes before the subsequent pellets were re-suspended in TES buffer. Bacteria with or without targeting agent were grown under the same conditions. Bacterial targeting agents, compound A7, were incubated with bacterial pellets at a concentration of 10 μM final in TES buffer at RT for 1 hour. […] In this experiment, fluorescence is only associated with bacteria in the presence of the bacterium targeting agent described herein.
# [4] = tested on: Staphylococcus epidermidis; assay: as above; assay type: cell-based; settings: 10 μM final in TES buffer, RT, 1 hour; FIG. 1A/1B
# Description: as §1
structure (smiles),measurement,setting,value
"CN1/C(=C/C=C(/C=C/C2=[N+](CCCS(=O)(=O)O)c3ccccc3C2(C)C)c2ccc(C(=O)NCCCCCC(=O)NCC(=O)Nc3ccc(CC[N+]45CC[N+](C)(CC4)CC5)cc3)cn2)C(C)(C)c2ccccc21 [Compound A7, 3-(3,3-dimethyl-2-((1E,3Z,5E)-3-(5-((6-((2-((4-(2-(4-methyl-1,4-diazabicyclo[2.2.2]octan-1,4-diium-1-yl)ethyl)phenyl)amino)-2-oxoethyl)amino)-6-oxohexyl)carbamoyl)pyridin-2-yl)-5-(1,3,3-trimethylindolin-2-ylidene)penta-1,3-dien-1-yl)-3H-indol-1-ium-1-yl)propane-1-sulfonate di-acetate]","differentiation between infected and uninfected areas (fluorescence, tomographic imaging)",[1],Statistically significant differentiation between infected and uninfected areas
same,uptake of the agent at the site of infection (tomographic images),Escherichia coli [2],clear uptake of the bacterial targeting agent at the site of the infection
same,in vitro binding to bacteria (fluorescence by flow cytometry),Escherichia coli [3],in vitro binding
same,in vitro binding to bacteria (fluorescence by flow cytometry),[4],in vitro binding
